The values that follow come from US20240059695A1, “SUBSTITUTED IMIDAZO[1,5-b]PYRIDAZINE COMPOUNDS AS KINASE INHIBITORS AND USE THEREOF” (IMPACT THERAPEUTICS (SHANGHAI), INC, priority 2020, published 2024).

Structures are written as SMILES. Like-named read-outs stand apart in the source and are kept apart here.

In series [1] the target is T1, ATR/ATRIP enzyme (Homo sapiens, UniProt Q13535).
T1 construct: purchased Eurofins 14-953
The series is described as follows: ATR enzyme activity experiment (HTRF). It is filed as biochemical. The following applies: p53 substrate, 30 min room temperature, read-out: IC50 (nM), inhibitory effect on ATR kinase activity. How it is done:
The mixture was centrifuged at 1000 rpm for 1 minute, and reacted at room temperature protected from light for 30 minutes. Then 5 μL of EDTA stop solution (250 mM) was added to stop the reaction.
For orientation: In TR-FRET formats the signal depends on donor and acceptor labels being close together.

Series [2] concerns human lung cancer NCI-H460 cell. The experiment in a line: MTT proliferation assay, NCI-H460. It is filed as cell-based. The following applies: NCI-H460, 96 h, read-out: IC50 (nM), proliferation of NCI-H460 cell. How it is done:
The cells were digested by trypsinase and centrifuged at 800 rpm for 5 minutes, the supernatant was discarded, and the residual was resuspended with fresh medium […]) and counted.
(§1) The cells were seeded into 96-well cell culture plate with a density of 2000/4000 cells per well and incubated overnight in a 5% CO2 incubator at 37° C. […] 5 μL diluent of each concentration was added to 120 μL of medium (25 times diluted) and mixed by shaking. The overnight cell plates were taken and the culture medium was removed, 195 μL of fresh medium was added to each well, and 5 μL of diluted medium containing the corresponding concentration of the test compound was added respectively (the final concentration of DMSO is 1%), and the culture plate was then placed in a 5% CO2 incubator at 37° C. for 4 days. After removing the original solution, 100 μL of fresh serum-free DMEM medium containing MTT (0.5 mg/mL) was added to each well, the culture was continued. […] Cell viability (%)=(ODcompound−ODbackground)/(ODDMSO−ODbackground)×100. GraphPad Prism 6.0 was used to analyze the data. The inhibitory activity of compounds on cell proliferation was plotted based on cell viability and the logarithm of compound concentration. The IC50 value was fitted by a sigmoidal dose response curve equation Y−100/(1+10^(LogC−LogIC50)), wherein C was the concentration of compound.
On the technique in general: Tetrazolium assays rely on reduction of a dye to a coloured formazan, in cell work by metabolically active cells.

Series [3] deals with human colon cancer LoVo cell. The experiment in a line: MTT proliferation assay, LoVo. It is filed as cell-based. The following applies: Homo sapiens, LoVo, 96 h, read-out: IC50 (nM), proliferation of LoVo cell. The protocol:
as §1, with “[…]” for “100 μL”, “viability (%)=(ODcompound−ODbackground)/ODDMSO−ODbackground)×100.” for “viability (%)=(ODcompound−ODbackground)/(ODDMSO−ODbackground)×100.”, “The IC5.0” for “The IC50”, “equation Y=100/(1+10^(LogC-LogIC50)),” for “equation Y−100/(1+10^(LogC−LogIC50)),”

Series [4] in a line: Pharmacokinetics following single oral administration to mice. The series is classed as in vivo. The following applies: mouse, CD-1 (ICR) mice, gavage 10 mg/kg, 0.5% methylcellulose/water suspension, plasma. The protocol: The compound of the present invention was formulated into a 0.5% methylcellulose/water uniform suspension, and was administered to CD-1 (ICR) mice by gavage at 10 mg/kg. Plasma samples were collected at 8 time points of 0.250, 0.500, 1.00, 2.00, 4.00, 6.00, 8.00 and 24.0 hours post-dose. Concentrations of the compound were determined by LC-MS/MS method.

T1 sequence (Q13535 whole entry): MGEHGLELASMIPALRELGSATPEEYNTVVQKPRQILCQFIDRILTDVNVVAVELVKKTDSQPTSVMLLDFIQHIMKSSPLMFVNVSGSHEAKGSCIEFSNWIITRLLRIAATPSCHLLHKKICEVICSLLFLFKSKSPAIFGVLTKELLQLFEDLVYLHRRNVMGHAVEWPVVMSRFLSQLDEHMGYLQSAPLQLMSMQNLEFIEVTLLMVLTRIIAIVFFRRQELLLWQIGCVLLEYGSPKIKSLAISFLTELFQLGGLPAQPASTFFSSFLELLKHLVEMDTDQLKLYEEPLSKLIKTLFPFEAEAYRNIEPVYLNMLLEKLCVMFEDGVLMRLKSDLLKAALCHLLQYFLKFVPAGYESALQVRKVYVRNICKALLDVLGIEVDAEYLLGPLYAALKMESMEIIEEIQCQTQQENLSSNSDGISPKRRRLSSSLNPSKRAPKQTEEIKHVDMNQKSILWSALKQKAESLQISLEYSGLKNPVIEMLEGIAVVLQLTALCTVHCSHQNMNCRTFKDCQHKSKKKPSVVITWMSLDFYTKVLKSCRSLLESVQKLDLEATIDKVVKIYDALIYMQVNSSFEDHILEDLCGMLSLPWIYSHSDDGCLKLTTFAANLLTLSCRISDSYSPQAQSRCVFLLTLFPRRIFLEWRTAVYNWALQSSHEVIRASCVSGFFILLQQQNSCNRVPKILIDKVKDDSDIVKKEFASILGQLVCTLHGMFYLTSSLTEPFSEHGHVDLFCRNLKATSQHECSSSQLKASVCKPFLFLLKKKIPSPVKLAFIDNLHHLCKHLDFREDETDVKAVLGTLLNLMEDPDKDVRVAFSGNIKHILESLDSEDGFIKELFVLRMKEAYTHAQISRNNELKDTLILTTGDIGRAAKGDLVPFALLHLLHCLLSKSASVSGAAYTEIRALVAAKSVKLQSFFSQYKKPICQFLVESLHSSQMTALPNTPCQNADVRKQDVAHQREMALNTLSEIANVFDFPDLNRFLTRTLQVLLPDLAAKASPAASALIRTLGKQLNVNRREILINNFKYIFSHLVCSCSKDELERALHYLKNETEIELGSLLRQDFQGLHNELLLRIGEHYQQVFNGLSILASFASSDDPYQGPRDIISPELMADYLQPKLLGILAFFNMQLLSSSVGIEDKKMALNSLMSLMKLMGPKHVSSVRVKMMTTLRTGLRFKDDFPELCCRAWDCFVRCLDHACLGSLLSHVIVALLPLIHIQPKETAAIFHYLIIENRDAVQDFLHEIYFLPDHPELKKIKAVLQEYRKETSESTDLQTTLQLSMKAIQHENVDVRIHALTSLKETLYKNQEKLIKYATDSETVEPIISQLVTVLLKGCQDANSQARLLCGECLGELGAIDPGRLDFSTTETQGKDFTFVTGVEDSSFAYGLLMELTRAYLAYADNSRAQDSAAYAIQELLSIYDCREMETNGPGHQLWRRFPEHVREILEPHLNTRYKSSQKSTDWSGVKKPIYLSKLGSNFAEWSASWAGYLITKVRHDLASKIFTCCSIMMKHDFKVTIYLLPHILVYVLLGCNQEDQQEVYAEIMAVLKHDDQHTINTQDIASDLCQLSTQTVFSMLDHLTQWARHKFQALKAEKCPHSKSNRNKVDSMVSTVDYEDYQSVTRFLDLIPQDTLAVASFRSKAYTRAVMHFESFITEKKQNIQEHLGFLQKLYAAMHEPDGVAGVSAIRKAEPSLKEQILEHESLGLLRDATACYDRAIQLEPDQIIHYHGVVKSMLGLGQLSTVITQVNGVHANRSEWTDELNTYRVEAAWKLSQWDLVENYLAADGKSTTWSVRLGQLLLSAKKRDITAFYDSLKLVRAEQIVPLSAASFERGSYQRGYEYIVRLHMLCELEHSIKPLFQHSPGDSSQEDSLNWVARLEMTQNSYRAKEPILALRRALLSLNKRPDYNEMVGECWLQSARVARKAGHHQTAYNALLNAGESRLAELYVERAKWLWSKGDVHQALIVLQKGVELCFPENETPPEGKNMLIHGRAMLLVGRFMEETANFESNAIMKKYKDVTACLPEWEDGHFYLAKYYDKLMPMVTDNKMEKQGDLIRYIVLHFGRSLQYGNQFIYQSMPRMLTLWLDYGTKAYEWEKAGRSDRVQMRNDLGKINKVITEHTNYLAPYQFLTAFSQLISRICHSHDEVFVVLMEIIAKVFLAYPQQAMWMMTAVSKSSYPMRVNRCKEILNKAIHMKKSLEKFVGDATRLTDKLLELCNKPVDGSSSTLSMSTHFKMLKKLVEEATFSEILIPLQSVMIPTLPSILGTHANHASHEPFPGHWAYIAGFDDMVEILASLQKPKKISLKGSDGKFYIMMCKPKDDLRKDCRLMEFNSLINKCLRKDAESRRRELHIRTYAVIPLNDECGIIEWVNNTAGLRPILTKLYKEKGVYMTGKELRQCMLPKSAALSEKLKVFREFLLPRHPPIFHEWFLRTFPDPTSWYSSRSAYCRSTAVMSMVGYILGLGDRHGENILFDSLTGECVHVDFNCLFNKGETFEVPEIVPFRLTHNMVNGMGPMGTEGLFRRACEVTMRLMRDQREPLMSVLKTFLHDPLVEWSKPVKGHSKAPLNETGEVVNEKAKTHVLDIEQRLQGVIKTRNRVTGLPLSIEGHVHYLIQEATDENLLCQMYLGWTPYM
T1 sequence (Q8WXE1 whole entry partner): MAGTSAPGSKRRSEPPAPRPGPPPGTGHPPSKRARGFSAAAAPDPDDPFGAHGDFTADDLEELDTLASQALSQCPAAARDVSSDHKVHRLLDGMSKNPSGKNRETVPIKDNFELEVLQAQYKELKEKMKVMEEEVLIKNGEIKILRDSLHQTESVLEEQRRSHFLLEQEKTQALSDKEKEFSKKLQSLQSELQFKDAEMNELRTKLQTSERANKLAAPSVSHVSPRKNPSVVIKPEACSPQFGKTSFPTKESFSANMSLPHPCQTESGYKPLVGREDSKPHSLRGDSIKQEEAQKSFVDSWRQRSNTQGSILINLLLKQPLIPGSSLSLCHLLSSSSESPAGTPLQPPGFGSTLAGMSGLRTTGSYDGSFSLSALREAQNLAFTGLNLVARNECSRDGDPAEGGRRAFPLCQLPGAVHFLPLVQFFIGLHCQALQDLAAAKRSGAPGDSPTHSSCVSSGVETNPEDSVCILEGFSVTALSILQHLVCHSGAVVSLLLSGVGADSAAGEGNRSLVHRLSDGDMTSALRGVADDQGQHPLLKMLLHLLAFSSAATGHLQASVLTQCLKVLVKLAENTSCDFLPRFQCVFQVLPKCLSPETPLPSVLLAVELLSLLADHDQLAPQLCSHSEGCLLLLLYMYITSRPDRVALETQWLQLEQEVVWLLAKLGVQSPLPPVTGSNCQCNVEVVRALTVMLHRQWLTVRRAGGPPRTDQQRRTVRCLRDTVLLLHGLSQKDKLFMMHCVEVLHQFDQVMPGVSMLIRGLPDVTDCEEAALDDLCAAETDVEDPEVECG

As for `Cc1nc(-c2ccn[nH]2)n2nc(N3CCOC[C@H]3C)cc(-c3ccccc3F)c12` [Example 14, (R)-4-(4-(2-fluorophenyl)-5-methyl-7-(1H-pyrazol-5-yl)imidazo[1,5-b]pyridazin-2-yl)-3-methylmorpholine], the IC50 in series [1] came to 10 nM. Moreover, in series [2] (MTT, 4 days), the IC50 was 32 nM. In addition, the IC50 in series [3] (MTT, 4 days) is 26.2 nM. For the same compound, in series [4], the AUC(0-inf) (as a rule, the area under the concentration-time curve extrapolated to infinity) turned out to be 78700 ng·h/mL; the AUC(0-t) (commonly exposure summed from dosing to a finite time, without extrapolation to infinity) stood at 77300 ng·h/mL; the Cmax – broadly, the highest concentration seen after dosing – came to 10800 ng/mL; the half-life (commonly the time needed for the level to fall by half in the phase considered) is 3.75 h.

In the case of `C[C@@H]1COCCN1c1cc(-c2ccnn2C)c2c(Cl)nc(-c3ccn[nH]3)n2n1` [Example 21, (R)-4-(5-chloro-4-(1-methyl-1H-pyrazol-5-yl)-7-(1H-pyrazol-5-yl)imidazo[1,5-b]pyridazin-2-yl)-3-methylmorpholine], the IC50 in series [1] was 6 nM. Also, in series [2] (MTT, 4 days), the IC50 stood at 24.1 nM. For the same compound, in series [3] (MTT, 4 days), the IC50 was 22.4 nM. In series [4], the AUC(0-inf) is 42900 ng·h/mL, the exposure AUC(0-t) came out at 42800 ng·h/mL, the Cmax turned out to be 7340 ng/mL and the half-life is 2.65 h.

In the case of `C[C@@H]1COCCN1c1cc(-c2ccnn2C)c2c(Br)nc(-c3ccn[nH]3)n2n1` [Example 22, (R)-4-(5-bromo-4-(1-methyl-1H-pyrazol-5-yl)-7-(1H-pyrazol-5-yl)imidazo[1,5-b]pyridazin-2-yl)-3-methylmorpholine], the IC50 in series [1] turned out to be 2 nM. The IC50 in series [2] (MTT, 4 days) amounted to 17.1 nM. Further, in series [3] (MTT, 4 days), the IC50 came to 24.1 nM. Also, in series [4], the AUC(0-inf) was determined as 63000 ng·h/mL, the AUC(0-t) turned out to be 59000 ng·h/mL, the highest level (Cmax) was 7670 ng/mL and the half-life is 5.88 h.

As for `C=Cc1nc(-c2ccn[nH]2)n2nc(N3CCOC[C@H]3C)cc(-c3ccnn3C)c12` [Example 23, (R)-3-methyl-4-(4-(1-methyl-1H-pyrazol-5-yl)-7-(1H-pyrazol-5-yl)-5-vinylimidazo[1,5-b]pyridazin-2-yl)morpholine], the IC50 in series [1] stood at 2 nM. Also, in series [2] (MTT, 4 days), the IC50 is 32 nM. Also, the IC50 in series [3] (MTT, 4 days) is 39.1 nM. In series [4], the AUC(0-inf) was 24100 ng·h/mL, the AUC(0-t) stood at 22400 ng·h/mL, the peak level (Cmax) was 6610 ng/mL and the half-life was 1.66 h.

As to `CCc1nc(-c2ccn[nH]2)n2nc(N3CCOC[C@H]3C)cc(-c3ccnn3C)c12` [Example 24, (R)-4-(5-ethyl-4-(1-methyl-1H-pyrazol-5-yl)-7-(1H-pyrazol-5-yl)imidazo[1,5-b]pyridazin-2-yl)-3-methylmorpholine], the IC50 in series [1] stood at 2 nM. In series [2], the IC50 is 28 nM. In series [3], the IC50 is 38.8 nM. Also, in series [4], the AUC(0-inf) came out at 171000 ng·h/mL, the AUC(0-t) turned out to be 162000 ng·h/mL, the Cmax was found to be 15400 ng/mL and the half-life was 5.4 h.

`C=C(C)c1nc(-c2ccn[nH]2)n2nc(N3CCOC[C@H]3C)cc(-c3ccnn3C)c12` [Example 25, (R)-3-Methyl-4-(4-(1-Methyl-1H-pyrazol-5-yl)-5-(prop-1-en-2-yl)-7-(1H-pyrazol-5-yl)imidazo[1,5-b]pyridazin-2-yl)morpholine]: in series [1], the IC50 is 1 nM. For the same compound, the IC50 in series [2] (MTT, 4 days) amounted to 8.64 nM. Moreover, the IC50 in series [3] (MTT, 4 days) came to 10.7 nM. In addition, in series [4], the AUC(0-inf) amounted to 70200 ng·h/mL, the area under the curve AUC(0-t) turned out to be 70000 ng·h/mL, the Cmax stood at 16900 ng/mL and the half-life was 2.56 h.

Turning to `CC(C)c1nc(-c2ccn[nH]2)n2nc(N3CCOC[C@H]3C)cc(-c3ccnn3C)c12` [Example 26, (R)-4-(5-isopropyl-4-(1-methyl-1H-pyrazol-5-yl)-7-(1H-pyrazol-5-yl)imidazo[1,5-b]pyridazin-2-yl)-3-methylmorpholine], the IC50 in series [1] stood at 1 nM. The IC50 in series [2] (MTT, 4 days) worked out at 22.8 nM. In addition, the IC50 in series [3] (MTT, 4 days) stood at 27.4 nM. In addition, in series [4], the AUC(0-inf) turned out to be 49000 ng·h/mL, the AUC(0-t) was found to be 46400 ng·h/mL, the peak level (Cmax) was 7180 ng/mL and the half-life was 5.82 h.
